# Patent publication US9701689B2, “Substituted pyridines and pyridazines as CCR10 receptor inhibitors” (KYOWA HAKKO KIRIN CO., LTD., priority 2012, dated 2017)
# Target: T1, human CCR10 (Homo sapiens, UniProt P46092)
# T1 construct: expressed in transfected cells; host or cells: KJMGER8 cells (Namalwa cell-derived line), beta-estradiol-induced; hCCR10G16 cells
# T1 sequence (P46092 1-362): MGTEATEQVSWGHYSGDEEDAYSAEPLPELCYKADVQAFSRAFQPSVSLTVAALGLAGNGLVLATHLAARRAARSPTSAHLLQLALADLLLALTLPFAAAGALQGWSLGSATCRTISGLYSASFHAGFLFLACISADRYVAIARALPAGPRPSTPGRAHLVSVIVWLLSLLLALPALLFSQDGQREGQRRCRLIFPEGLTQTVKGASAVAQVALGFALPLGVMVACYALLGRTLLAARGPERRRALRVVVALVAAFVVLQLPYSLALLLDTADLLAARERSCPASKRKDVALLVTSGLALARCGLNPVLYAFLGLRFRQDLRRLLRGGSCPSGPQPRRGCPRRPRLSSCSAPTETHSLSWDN
# Assay: CCR10 antagonistic effect: calcium assay of human CCR10 (CTACK-induced increase of intracellular calcium in hCCR10G16 cells)
# Assay type: cell-based
# Settings: at a concentration of not more than 1000 nmol/L; human CCR10-expressing hCCR10G16 cells, 300 nmol/L CTACK added; read-out: inhibition of increase in the calcium ion concentration
# Method: [Experimental Example 1] CCR10 Antagonistic Effect
# (1) Preparation of Human CCR10-Inducible Expression Plasmid
# A CCR10-inducible expression plasmid was prepared according to a known method [Analytical Biochemistry, 2006, vol. 400, page 163]. A DNA encoding human CCR10 was obtained by PCR. Using human chromosome DNA (100 ng; manufactured by Clontech) as a template, synthetic DNA having the sequences depicted in SEQ ID NOs: 1 and 2 as a human CCR10 cDNA specific primer, and Pyrobest DNA Polymerase (manufactured by TAKARA SHUZO CO. LTD.) as an enzyme, a DNA encoding human CCR10 was obtained by PCR. As a buffer for PCR, the buffer attached to the enzyme to be used, which was diluted 10-fold with deionized water, was used. Using Thermal Cycler DNA Engine (manufactured by MJ Research), PCR was performed by 35 cycles of reactions composed of an incubation at 94° C. for 30 sec, at an anneal temperature of 58° C. for 30 sec, and at 72° C. for 1 min after treating at 90° C. for 2 min.
# The amplified PCR fragment was cleaved with HindIII and NotI, then a human CCR10 DNA fragment was recovered by the agarose gel electrophoresis method. The fragment was incorporated between the corresponding restriction enzyme sites (HindIII-NotI) of an inducible expression vector to construct a human CCR10-inducible expression plasmid.
# Using a primer specific to the sequence of plasmid (synthetic DNA having the sequences shown in SEQ ID NOs: 3 and 4), the sequence of human CCR10 DNA region was determined. For the determination of the base sequence, DNA Sequencer 377 (manufactured by Perkin Elmer. Co.) and a reaction kit (ABI Prism (registered trade mark) BigDye (registered trade mark) Terminator Cycle Sequencing Ready Reaction kit: manufactured by Applied Biosystems) were used. The sequence of human CCR10 DNA was identical with the sequence (NM 016602) registered in GenBank.
# (2) Preparation of Human CCR10 Expressing Cell for Calcium Assay
# Cells for detecting signals from human CCR10 in calcium assay were prepared. According to a known method [Analytical.Biochemistry (Analy Biochem), 2006, vol. 400, page 163], human CCR10-inducible expressing cells whose host cell is KJMGER8 cell (Namalwa cell-derived cell line) were prepared. Human CCR10-inducible expression plasmid produced above and Gα16 expression plasmid were co-transfected into the KJMGER8 cells by the electroporation method [Cytotechnology, 1990, vol. 3, page 133], whereby the signals from human CCR10 could be detected by calcium assay (hereinafter to be referred to as hCCR10G16 cell). A Ga16 expression plasmid was produced by incorporating human Ga16 DNA into expression vector pAMoh (WO 03/087366). Expression of human CCR10 was induced by cultivating hCCR10G16 cells in the presence of 10 nmol/L β-estradiol (manufactured by Sigma Ltd.) for 24 hr.
# (3) Calcium Assay of Human CCR10
# Cells expressing human CCR10 induced by the above-mentioned method were suspended in RPMI1640 medium (manufactured by Invitrogen), and adjusted to a cell density of 2×10^6 cells/mL. The cells were blended with an equivalent volume of a loading buffer prepared according to the attached protocol of Fluo-3 calcium assay kit (manufactured by Molecular Devices Corporation), and incubated at 37° C. for several dozen minutes. This mixture was dispensed to a 384 well clear-bottom plate (manufactured by Corning Incorporated) at 40 μL/well. To this plate was added a solution of the test compound in dimethyl sulfoxide (DMSO), which was diluted 37-fold with RPMI1640 medium, at 5 μL/well, and the mixture was incubated at 37° C. for 30 min. 300 nmol/L human recombinant CTACK (manufactured by R&D Systems, Inc.) diluted with RPMI1640 medium containing 1 w/v % bovine serum albumin (manufactured by Sigma Ltd.) was added at 5 μL/well and, variation of intracellular calcium ion concentration for about 5 min after the addition was measured by a screening apparatus (FDSS; manufactured by Hamamatsu Photonics K.K.). […]
row,inhibition at up to 1 µM [%],Structure (SMILES)
1,≥ 50,"Cc1cc(NS(=O)(=O)c2ncc(C(=O)N3CCC(c4ccc(F)cc4)CC3)c(Nc3ccc(F)cc3C)c2Cl)on1 [Compound 41, 3-chloro-4-(4-fluoro-2-methylphenylamino)-5-[4-(4-fluorophenyl)piperidine-1-carbonyl]-N-(3-methylisoxazol-5-yl)pyridine-2-sulfonamide]"
2,≥ 50,"Cc1cc(F)ccc1Nc1c(C(=O)N2CCC(c3ccc(F)cc3)CC2)cnc(S(=O)(=O)Nc2cc(C(C)(C)C)on2)c1Cl [Compound 42, N-(5-tert-butylisoxazol-3-yl)-3-chloro-4-(4-fluoro-2-methylphenylamino)-5-[4-(4-fluorophenyl)piperidine-1-carbonyl]pyridine-2-sulfonamide]"
3,≥ 50,"CCNC(=O)NS(=O)(=O)c1ncc(C(=O)N2CCC(c3ccc(F)cc3)CC2)c(Nc2ccc(F)cc2C)c1Cl [Compound 43, 3-chloro-N-(ethylcarbamoyl)-4-(4-fluoro-2-methylphenylamino)-5-[4-(4-fluorophenyl)piperidine-1-carbonyl]pyridine-2-sulfonamide]"
4,≥ 50,"NS(=O)(=O)c1ncc(C(=O)N2CCC(c3ccc(F)cc3)CC2)c(NCc2ccccc2)c1Cl [Compound 44, 4-(benzylamino)-3-chloro-5-[4-(4-fluorophenyl)piperidine-1-carbonyl]pyridine-2-sulfonamide]"
5,≥ 50,"NS(=O)(=O)c1ncc(C(=O)N2CCC(c3ccc(F)cc3)CC2)c(NC2CCCCC2)c1Cl [Compound 45, 3-chloro-4-(cyclohexylamino)-5-[4-(4-fluorophenyl)piperidine-1-carbonyl]pyridine-2-sulfonamide]"
6,≥ 50,"Cc1cc(Cl)ccc1Nc1cc(S(N)(=O)=O)ncc1C(=O)N1CCC2(CC1)OCc1ccccc12 [Compound 46, 4-(4-chloro-2-methylphenylamino)-5-(3H-spiro[isobenzofuran-1,4′-piperidine]-1′-ylcarbonyl]pyridine-2-sulfonamide]"
7,≥ 50,"Cc1cc(F)ccc1Nc1cc(S(N)(=O)=O)ncc1C(=O)N1CCC(c2ccccc2)CC1 [Compound 48, 4-(4-fluoro-2-methylphenylamino)-5-(4-phenylpiperidine-1-carbonyl)pyridine-2-sulfonamide]"
8,≥ 50,"Cc1cc(Cl)ccc1Nc1cc(S(N)(=O)=O)ncc1C(=O)N1CCC(c2ccccc2)CC1 [Compound 49, 4-(4-chloro-2-methylphenylamino)-5-(4-phenylpiperidine-1-carbonyl)pyridine-2-sulfonamide]"
9,≥ 50,"Cc1ccc(Cl)c(Nc2cc(S(N)(=O)=O)ncc2C(=O)N2CCC(c3ccc(F)cc3)CC2)c1 [Compound 50, 4-(2-chloro-5-methylphenylamino)-5-[4-(4-fluorophenyl)piperidine-1-carbonyl]pyridine-2-sulfonamide]"
10,≥ 50,"Cc1cc(Nc2cc(S(N)(=O)=O)ncc2C(=O)N2CCC(c3ccc(F)cc3)CC2)c(Cl)cc1Cl [Compound 51, 4-(2,4-dichloro-5-methylphenylamino)-5-[4-(4-fluorophenyl)piperidine-1-carbonyl]pyridine-2-sulfonamide]"
11,≥ 50,"Cc1cc(Nc2cc(S(N)(=O)=O)ncc2C(=O)N2CCC(c3ccc(F)cc3)CC2)c(Cl)cc1F [Compound 52, 4-(2-chloro-4-fluoro-5-methylphenylamino)-5-[4-(4-fluorophenyl)piperidine-1-carbonyl]pyridine-2-sulfonamide]"
12,≥ 50,"Cc1ccc(C)c(Nc2cc(S(N)(=O)=O)ncc2C(=O)N2CCC(c3ccc(F)cc3)CC2)c1 [Compound 53, 4-(2,5-dimethylphenylamino)-5-[4-(4-fluorophenyl)piperidine-1-carbonyl]pyridine-2-sulfonamide]"
13,≥ 50,"Cc1ccc(Nc2cc(S(N)(=O)=O)ncc2C(=O)N2CCC(c3ccc(F)cc3)CC2)c(C)c1 [Compound 55, 4-(2,4-dimethylphenylamino)-5-[4-(4-fluorophenyl)piperidine-1-carbonyl]pyridine-2-sulfonamide]"
14,≥ 50,"Cc1ccc(Nc2cc(S(N)(=O)=O)ncc2C(=O)N2CCC(c3ccc(F)cc3)CC2)c(F)c1 [Compound 56, 4-(2-fluoro-4-methylphenylamino)-5-[4-(4-fluorophenyl)piperidine-1-carbonyl]pyridine-2-sulfonamide]"
15,≥ 50,"Cc1c(Cl)cccc1Nc1cc(S(N)(=O)=O)ncc1C(=O)N1CCC(c2ccc(F)cc2)CC1 [Compound 57, 4-(3-chloro-2-methylphenylamino)-5-[4-(4-fluorophenyl)piperidine-1-carbonyl]pyridine-2-sulfonamide]"
16,≥ 50,"Cc1ccc(Nc2cc(S(N)(=O)=O)ncc2C(=O)N2CCC(c3ccc(F)cc3)CC2)c(Cl)c1 [Compound 58, 4-(2-chloro-4-methylphenylamino)-5-[4-(4-fluorophenyl)piperidine-1-carbonyl]pyridine-2-sulfonamide]"
17,≥ 50,"Cc1c(Nc2cc(S(N)(=O)=O)ncc2C(=O)N2CCC(c3ccc(F)cc3)CC2)ccc(Cl)c1F [Compound 59, 4-(4-chloro-3-fluoro-2-methylphenylamino)-5-[4-(4-fluorophenyl)piperidine-1-carbonyl]pyridine-2-sulfonamide]"
18,≥ 50,"Cc1c(F)cccc1Nc1cc(S(N)(=O)=O)ncc1C(=O)N1CCC(c2ccc(F)cc2)CC1 [Compound 60, 4-(3-fluoro-2-methylphenylamino)-5-[4-(4-fluorophenyl)piperidine-1-carbonyl]pyridine-2-sulfonamide]"
19,≥ 50,"Cc1c(Nc2cc(S(N)(=O)=O)ncc2C(=O)N2CCC(c3ccc(F)cc3)CC2)cccc1C(F)(F)F [Compound 61, 5-[4-(4-fluorophenyl)piperidine-1-carbonyl]-4-[2-methyl-3-(trifluoromethyl)phenylamino]pyridine-2-sulfonamide]"
20,≥ 50,"Cc1ccc(F)cc1Nc1cc(S(N)(=O)=O)ncc1C(=O)N1CCC(c2ccc(F)cc2)CC1 [Compound 62, 4-(5-fluoro-2-methylphenylamino)-5-[4-(4-fluorophenyl)piperidine-1-carbonyl]pyridine-2-sulfonamide]"
21,≥ 50,"Cc1ccc(Nc2cc(S(N)(=O)=O)ncc2C(=O)N2CCC(c3ccc(F)cc3)CC2)cc1F [Compound 64, 4-(3-fluoro-4-methylphenylamino)-5-[4-(4-fluorophenyl)piperidine-1-carbonyl]pyridine-2-sulfonamide]"
22,≥ 50,"Cc1cccc(Nc2cc(S(N)(=O)=O)ncc2C(=O)N2CCC(c3ccc(F)cc3)CC2)c1C [Compound 65, 4-(2,3-dimethylphenylamino)-5-[4-(4-fluorophenyl)piperidine-1-carbonyl]pyridine-2-sulfonamide]"
